# Values of other authors, collected in US20230338329A1, “C[…] COMPOSITION AND METHOD OF MANUFACTURING” (priority 2022, published 2023).
# Conditions: hydrophilic-lipophilic balance value
row,Compound,HLB
1,CCCCCCCCCCCCOS(=O)(=O)[O-].[Na+] [sodium lauryl sulfate],40
2,Sorbitan monooleate [Span 80],4.9
3,alkyl phenyl polyoxyethylene ether,14.5
4,polyoxyethylene sorbitan monooleate,15
